Seven compounds from patent publication US6677331B2, “Carbapenem derivatives” (Meiji Seika Kaisha, Ltd., priority 1998, dated 2004) can be followed below.

Bounds are passed on as bounds.

Series [1] deals with T1, porcine renal DHP-I (Sus scrofa, UniProt P22412).
T1 sequence (P22412 17-384): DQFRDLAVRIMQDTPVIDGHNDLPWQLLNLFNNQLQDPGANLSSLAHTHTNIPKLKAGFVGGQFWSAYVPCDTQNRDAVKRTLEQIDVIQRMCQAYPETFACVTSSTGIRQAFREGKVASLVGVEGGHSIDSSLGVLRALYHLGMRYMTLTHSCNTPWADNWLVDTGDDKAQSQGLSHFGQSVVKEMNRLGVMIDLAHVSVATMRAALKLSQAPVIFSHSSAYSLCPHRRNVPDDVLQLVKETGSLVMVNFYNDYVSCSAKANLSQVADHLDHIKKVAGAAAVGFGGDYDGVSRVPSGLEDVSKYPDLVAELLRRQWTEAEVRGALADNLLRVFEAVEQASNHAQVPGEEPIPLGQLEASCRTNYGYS
Briefly: Test 2: stability against DHP-I (porcine). The note with it: partly purified Porcine DHP-I, 100 μg (titer)/ml, 37° C., HPLC.

For series [2], the system named is M. catarrhalis W-0500. The series can be described thus: Test 1: Anti-Microbial Activities (MIC). The class given is cell-based. The note with it: Moraxella catarrhalis, W0500, Sensitivity Disk agar-N+5% Horse blood, inoculants 10^6 CFU/ml, read-out: minimum inhibiting concentrations (MIC). How it is done: (§1) The minimum inhibiting concentrations (MIC, μg/ml) of the compounds according to the present invention to various pathogenic bacteria was measured in accordance with the method described in CHEMOTHERAPY, vol. 16, No. 1,99, 1968. The culture medium for measurement was Sensitivity Disk agar-N+5% Horse blood, and the amount of inoculants was 10^6 CFU/ml.

The subject of series [3] is H. influenzae PRC44. Briefly: Test 1: Anti-Microbial Activities (MIC). The series is classed as cell-based. The note with it: Haemophilus influenzae, Sensitivity Disk agar-N+5% Horse blood, inoculants 10^6 CFU/ml, read-out: minimum inhibiting concentrations (MIC). How it is done: as §1
The test system of series [4] is P. vulgaris GN7919. The series can be described thus: Test 1: Anti-Microbial Activities (MIC). The class given is cell-based. The note with it: Proteus vulgaris, Sensitivity Disk agar-N+5% Horse blood, inoculants 10^6 CFU/ml, read-out: minimum inhibiting concentrations (MIC). How it is done: as §1
In series [5] the test system is E. hirae ATCC8043. The series can be described thus: Test 1: Anti-Microbial Activities (MIC). The note with it: Enterococcus hirae, Sensitivity Disk agar-N+5% Horse blood, inoculants 10^6 CFU/ml, read-out: minimum inhibiting concentrations (MIC). The series is classed as cell-based. How it is done:
as §1

The test system of series [6] is K. pneumoniae PCI602. The series can be described thus: Test 1: Anti-Microbial Activities (MIC). The class given is cell-based. The note with it: Klebsiella pneumoniae, Sensitivity Disk agar-N+5% Horse blood, inoculants 10^6 CFU/ml, read-out: minimum inhibiting concentrations (MIC). On the procedure: as §1
In series [7] the test system is S. epidermidis ATCC14990. The series can be described thus: Test 1: Anti-Microbial Activities (MIC). The series is classed as cell-based. The note with it: Staphylococcus epidermidis, Sensitivity Disk agar-N+5% Horse blood, inoculants 10^6 CFU/ml, read-out: minimum inhibiting concentrations (MIC). On the procedure: as §1
Series [8] relates to S. pneumoniae PRC9. The series can be described thus: Test 1: Anti-Microbial Activities (MIC). The class given is cell-based. The note with it: Streptococcus pneumoniae; S. pneumoniae PRC9, penicillin-hyperresistant strain (PRSP); Sensitivity Disk agar-N+5% Horse blood; inoculants 10^6 CFU/ml; read-out: minimum inhibiting concentrations (MIC). How it is done:
as §1

Series [9] deals with S. aureus M126. Briefly: Test 1: Anti-Microbial Activities (MIC). The series is classed as cell-based. The note with it: Staphylococcus aureus; S. aureus M126, methicillin-hyperresistant strain (MRSA); Sensitivity Disk agar-N+5% Horse blood; inoculants 10^6 CFU/ml; read-out: minimum inhibiting concentrations (MIC). On the procedure: as §1
Series [10] deals with E. faecalis W-73. The series can be described thus: Test 1: Anti-Microbial Activities (MIC). The series is classed as cell-based. The note with it: Enterococcus faecalis, W73, Sensitivity Disk agar-N+5% Horse blood, inoculants 10^6 CFU/ml, read-out: minimum inhibiting concentrations (MIC). How it is done:
as §1

The test system of series [11] is S. aureus 209P JC-1. The series can be described thus: Test 1: Anti-Microbial Activities (MIC). The class given is cell-based. The note with it: Staphylococcus aureus, Sensitivity Disk agar-N+5% Horse blood, inoculants 10^6 CFU/ml, read-out: minimum inhibiting concentrations (MIC). On the procedure: as §1
Series [12] concerns C. freundii GN346. The series can be described thus: Test 1: Anti-Microbial Activities (MIC). The series is classed as cell-based. The note with it: Citrobacter freundii, Sensitivity Disk agar-N+5% Horse blood, inoculants 10^6 CFU/ml, read-out: minimum inhibiting concentrations (MIC). How it is done:
as §1

Series [13] deals with H. influenzae PRC2. The series can be described thus: Test 1: Anti-Microbial Activities (MIC). The note with it: Haemophilus influenzae, Sensitivity Disk agar-N+5% Horse blood, inoculants 10^6 CFU/ml, read-out: minimum inhibiting concentrations (MIC). The series is classed as cell-based. On the procedure:
as §1

Series [14] has as its system E. coli NIHJ JC-2. The series can be described thus: Test 1: Anti-Microbial Activities (MIC). The class given is cell-based. The note with it: Escherichia coli, NIHJJC2, Sensitivity Disk agar-N+5% Horse blood, inoculants 10^6 CFU/ml, read-out: minimum inhibiting concentrations (MIC). On the procedure:
as §1

A short description of series [15]: Test 5: Acute Toxicity (i.v.). The class given is in vivo, mice (ICR, male). The note with it: mice, 2,000 mg/kg i.v. How it is done: The compounds of Examples 44, 62, 88, and 111 were tested again in the same manner as the above provided that cilastatin sodium was co-administered.
The nature of series [16]: Test 4: Oral Absorption Ability Test (2). The series is classed as in vivo, mice (ICR, male). On the procedure:
The compounds of Examples 62, 63 and 69 were orally administered to mice (ICR, male, n=3) in an amount of 0.5 mg (based on the weight of the compound of Example 62 from which the compounds of Examples 63 and 69 were derived)/0.2 ml/mouse as a 0.5% methylcellulose suspension, and then cilastatin was immediately administered subcutaneously in the same amount (because of the instability of the compound of Example 62 to mouse DHP-I, cilastatin as an inhibitor of DHP-I was used in combination). As a result, the compound of Example 62 was excreted in urine in 6%, 18% and 35% of bio-availability (BA) by 24 hours after the compounds of Examples 62, 63 and 69 were administered. The “BA” is a ratio of the recovery of a mother compound in urine when a test compound, i.e., a pro-drug of the mother compound , is orally administered to the recovery of the mother compound when the mother compound is administered intravenously. Some compounds were tested in the same manner as in Test 3 provided that 5%HCO60 was used instead of 0.5% methylcellulose suspension.

The target of series [17] is T2, mouse DHP-I (Mus musculus, UniProt P31428).
T2 sequence (P31428 17-384): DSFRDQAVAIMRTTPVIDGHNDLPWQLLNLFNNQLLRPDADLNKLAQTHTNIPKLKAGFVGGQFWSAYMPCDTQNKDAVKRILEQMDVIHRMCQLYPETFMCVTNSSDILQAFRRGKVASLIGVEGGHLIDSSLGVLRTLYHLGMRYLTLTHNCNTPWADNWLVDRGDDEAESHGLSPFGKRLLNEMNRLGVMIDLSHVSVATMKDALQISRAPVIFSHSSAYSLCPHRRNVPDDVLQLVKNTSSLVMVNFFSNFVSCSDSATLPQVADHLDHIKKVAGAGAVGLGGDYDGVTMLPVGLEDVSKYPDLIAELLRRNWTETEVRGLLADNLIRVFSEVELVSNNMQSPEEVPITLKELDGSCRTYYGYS
Briefly: Test 2: stability against DHP-I (mouse). The note with it: for residual amounts (%) after 3 hours: partly purified Mouse DHP-I, 100 μg (titer)/ml, 37° C., HPLC.

[18] abbreviates: cilastatin sodium co-administered.

`Cc1nc(S(C)(=O)=O)c2sc(C3=C(C(=O)[O-])N4C(=O)[C@H]([C@@H](C)O)[C@H]4[C@H]3C)cn12.[Na+]` [Example 44, Sodium (1S,5R,6S)-6-((1R)-1-Hydroxyethyl)-2-(7-methanesulfonyl-5-methylimidazo[5,1-b]thiazol-2-yl)-1-methyl-1-carbapen-2-em-3-carboxylate]: in series [1], the “residual amounts (%) after 3 hours” value was found to be 100%. In addition, the MIC in series [2] was < 0.025 µg/mL; in series [3], 0.1 µg/mL; in [4], 0.78 µg/mL; in [5], 0.78 µg/mL; in [6], 1.56 µg/mL; in series [7], 0.05 µg/mL. Moreover, the MIC is 0.1 µg/mL in series [8]; 3.13 µg/mL in series [9]; 0.78 µg/mL in series [10]; 0.05 µg/mL in [11]; 12.5 µg/mL in [12]; < 0.025 µg/mL in series [13]. Further, the MIC in series [14] was found to be 0.78 µg/mL. The “survival (acute toxicity)” value in [15] and in series [15] (setting [18]) was “All of the animal survived” in each case.
Consider `CC(C)C1CC[C@H](C)CC1OC(=O)OCOC(=O)C1=C(c2cn3cnc(S(C)(=O)=O)c3s2)[C@H](C)[C@@H]2[C@@H]([C@@H](C)O)C(=O)N12` (stereo partly drawn) [Example 218, (1S,2R,5s)-(d)-Menthyloxycarbonyloxymethyl (1S,5R,6S)-6-((1R)-1-hydroxyethyl)-2-(7-methanesulfonylimidazo[5,1-b]thiazol2-yl)-1-methyl-1-carbapen-2-em-3-carboxylate], for which, in series [16] (mice, oral, same as Test 3 but 5%HCO60 instead of 0.5% methylcellulose suspension), the “bio-availability (BA): mother compound excreted in urine by 24 hours” value (“bio-availability (BA)” for short) came out at 26%.
“1-Adamantylcarbonyloxymethyl (1S,5R,6S)-6-((1R)-1-hydroxyethyl)-methyl-2-(7-methylthio-imidazo[5,1-b]thiazol-2-yl)-1-carbapen-2-em-3-carboxylate [Example 250]”: the “bio-availability (BA)” value in series [16] (mouse, in vivo, po) is given as 39%.
For the compound `C[C@@H](O)[C@H]1C(=O)N2C(C(=O)[O-])=C(c3cn4cnc(S(C)(=O)=O)c4s3)[C@H](C)[C@H]12.[Na+]` [Example 62, Sodium (1S,5R,6S)-6-((1R)-1-Hydroxyethyl)-2-(7-methanesulfonylimidazo[5,1-b]thiazol-2-yl)-1-methyl-1-carbapen-2-em-3-carboxylate], the “stability to mouse DHP-I (in words)” value in series [17] was “instability”. The entries for the “residual amounts (%) after 3 hours” value in [17] and in [1] were 1.5% and 64%, respectively. Further, the MIC in series [2] is < 0.025 µg/mL; in series [3], 0.05 µg/mL; in [4] it was 0.1 µg/mL; in series [5], 0.39 µg/mL; in series [6], 0.05 µg/mL; in [7], < 0.025 µg/mL. Besides, the MIC in series [8] is 0.05 µg/mL; in series [9] it was 1.56 µg/mL; in series [10], 0.2 µg/mL; in series [11] it was < 0.025 µg/mL; in series [12], 1.56 µg/mL; in series [13], < 0.025 µg/mL. Besides, in [14], the MIC came out at 0.05 µg/mL. Besides, the “survival (acute toxicity)” value in series [15] and in series [15] (setting [18]) was “All of the animal survived” in each case.
Take `CSc1ncn2cc(C3=C(C(=O)OC(C)OC(=O)OCCC(C)C)N4C(=O)[C@H]([C@@H](C)O)[C@H]4[C@H]3C)sc12` (stereo partly drawn) [Example 273, 1-(3-Methyl-1-butyloxycarbonylbxy)ethyl (1S,5R,6S)-6-((1R)-1-hydroxyethyl)-1-methyl-2-(7-methylthioimidazo[5,1-b]thiazol-2-yl1)-1-carbapen-2-em-3-carboxylate]: the “bio-availability (BA)” value in [16] (mouse, in vivo, po) is 36%.
The same measure, in the same setting: the same measure for `CSc1ncn2cc(C3=C(C(=O)OCOC(=O)c4ccccc4)N4C(=O)[C@H]([C@@H](C)O)[C@H]4[C@H]3C)sc12` [Example 253, Benzoylxymethyl (1S,5R,6S)-6-((1R)-1-hydroxyethyl)-1-methyl-2-(7-methylthioimidazo-[5,1-b]thiazol-2-yl)-1-carbapen-2-em-3-carboxylate]: 37%.
In the case of `C[C@@H](O)[C@H]1C(=O)N2C(C(=O)[O-])=C(c3cn4cnc(S(=O)(=O)N(C)C)c4s3)[C@H](C)[C@H]12.[Na+]` [Example 88, Sodium (1S,5R,6S)-2-[7-(N,N-dimethylsulfamoyl)imidazo[5,1-b]thiazol-2-yl]-6-((1R)-1-hydroxyethyl)-1-methyl-1-carbapen-2-em-3-carboxylate], the figures for the “residual amounts (%) after 3 hours” value in series [17] and in [1] were <0.1% and 73%, respectively. Besides, the MIC in series [2] was < 0.025 µg/mL; in [3], 0.1 µg/mL; in series [4], 0.78 µg/mL; in series [5], 0.39 µg/mL; in series [6], 0.39 µg/mL; in [7] it was < 0.025 µg/mL. For the same compound, the MIC in series [8] is 0.05 µg/mL; in series [9], 1.56 µg/mL; in series [10] it was 0.39 µg/mL; in series [11], < 0.025 µg/mL; in series [12], 3.13 µg/mL; in series [13] it was < 0.025 µg/mL. Also, the MIC in series [14] amounted to 0.39 µg/mL. For the same compound, the “survival (acute toxicity)” value in series [15] and in [15] (setting [18]) was “All of the animal survived” in each case.
